Assay results published in article PMC9964680, “Novel TDP1 Inhibitors: Disubstituted Thiazolidine-2,4-Diones Containing Monoterpene Moieties” (International Journal of Molecular Sciences, 2023).

Assays:
Human recombinant TDP1 = target: T1, Human recombinant TDP1 (Homo sapiens, UniProt Q9NUW8); assay: Real-time oligonucleotide biosensor assay of TDP1 activity; format: biochemical; conditions: 1.5 nM TDP1, 50 nM biosensor, 26 °C, at least three experiments; read-out: TDP1 inhibitory activity IC50
T1 construct: made in house
Method: The inhibiting activity of the compounds against TDP1 was investigated using a real-time oligonucleotide biosensor assay.
The biosensor (5′-[FAM] AAC GTC AGGGTC TTC C [BHQ]-3′) was synthesized in the Laboratory of Nucleic Acid Chemistry at the Institute of Chemical Biology and Fundamental Medicine (Novosibirsk, Russia) and was used for TDP1 enzyme activity real-time fluorescence detection. The reaction mixture (200 µL) contained a TDP1 reaction buffer (50 mM Tris-HCl, pH 8.0, 50 mM NaCl, and 7 mM β-mercaptoethanol), 50 nM oligonucleotide, varied concentrations of the tested compounds, and purified TDP1 in a final concentration of 1.5 nM. The recombinant TDP1 was purified to homogeneity by chromatography on Ni-chelating resin and phosphocellulose P11, as described, using plasmid pET 16B-TDP1, kindly provided by Dr. K.W. Caldecott (University of Sussex, United Kingdom).
The reaction mixtures were incubated at a constant temperature of 26 °C in a POLARstar OPTIMA fluorimeter (BMG LABTECH, GmbH, Ortenberg, Germany). Fluorescence intensity was measured (Ex485/Em520 nm) every 1 min for 10 min. The average values of the half maximal inhibitory concentration (IC50) were determined using a six-point concentration response curve and calculated using MARS Data Analysis 2.0 (BMG LABTECH). The 50% inhibitory concentration (IC50) was defined as the concentration of the compound that inhibited 50% of the enzyme activity, when compared to the untreated controls. At least three independent experiments were carried out to obtain the IC50 values.

MRC-5 cells = assay: Effect of compounds on topotecan cytotoxicity, MRC-5 (EZ4U); format: cell-based, human; conditions: MRC-5, 10 μM compound, topotecan 1 to 10 μM
Method: According the EZ4U test data the thiazolidine-2,4-diones were shown not to enhance the cytotoxic effect of topotecan at 10 μM (Figure 2C,D). […] It can be speculated that the decisive factor is the use of the thiazolidine-2,4-dione fragment as a central molecular scaffold, which is a pharmacophore for many targets. In particular, thiazolidine-2,4-diones are well-known for their antidiabetic, antitumor [20], and anti-inflammatory activities. Such promiscuity can lead to binding to a number of proteins/enzymes in cells other than TDP1.
Human colon adenocarcinoma HCT-116 and human lung fibroblast MRC-5 cell lines were provided by the Cell Culture Bank of the State Research Center for Virology and Biotechnology Vector, Novosibirsk, Russia. Cells were cultured in DMEM medium (Invitrogen) supplemented with 10% fetal bovine serum (FBS) (Invitrogen), penicillin (100 units/mL), and streptomycin (100 µg/mL) at 37 °C and 5% CO2 in a humid atmosphere. After the formation of a 30–50% monolayer, the tested compounds were added to the medium. Because the compounds are soluble in DMSO, we minimized the DMSO content in the culture medium. The volume of the added reagents was 1/100 of the total volume of the culture medium, and the amount of DMSO was 1% of the final volume. Control cells were grown in the presence of 1% DMSO. […]

T1 sequence (Q9NUW8 whole entry): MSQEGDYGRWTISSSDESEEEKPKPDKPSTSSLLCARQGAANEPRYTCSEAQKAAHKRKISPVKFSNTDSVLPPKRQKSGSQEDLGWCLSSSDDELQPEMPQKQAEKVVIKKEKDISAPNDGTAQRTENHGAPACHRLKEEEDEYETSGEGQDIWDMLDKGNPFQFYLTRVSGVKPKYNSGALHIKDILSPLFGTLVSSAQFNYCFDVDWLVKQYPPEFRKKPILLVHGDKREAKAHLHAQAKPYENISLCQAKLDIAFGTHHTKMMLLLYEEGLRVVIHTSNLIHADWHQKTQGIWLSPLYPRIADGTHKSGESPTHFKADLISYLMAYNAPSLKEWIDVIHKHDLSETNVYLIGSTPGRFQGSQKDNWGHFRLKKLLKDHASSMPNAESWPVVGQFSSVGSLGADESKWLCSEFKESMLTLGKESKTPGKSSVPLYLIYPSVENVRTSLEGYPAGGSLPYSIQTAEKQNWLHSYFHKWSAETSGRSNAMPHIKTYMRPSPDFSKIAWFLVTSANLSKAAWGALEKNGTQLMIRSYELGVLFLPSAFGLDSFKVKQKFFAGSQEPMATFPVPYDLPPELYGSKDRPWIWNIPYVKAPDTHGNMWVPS

In the case of `CC1(C)[C@H]2CC=C(CCN3C(=O)S/C(=C\c4ccc(Br)s4)C3=O)[C@@H]1C2` [Compound 21b, (Z)-5-((5-bromothiophen-2-yl)methylene)-3-(2-((1R,5S)-6,6-dimethylbicyclo[3.1.1]hept-2-en-2-yl)ethyl)thiazolidine-2,4-dione], the IC50 (Human recombinant TDP1) is reported as 2500 ± 400 nM and the “effect on the cytotoxic effect of topotecan” value (MRC-5 cells) is reported as “protects MRC-5 cells”.
